Assays:
BSH [1] = test: In vivo probe labeling in L. plantarum; type: cell-based, Lactobacillus plantarum
Protocol: (§1) The BSH probes were then assayed for retention of function in the presence of a complex cell lysate. Purified BSH was added to an organism that is not known to endogenously express BSH to precisely control this variable. […] After confirming that the BSH-ABP is capable of labeling BSH in complex biological mixtures, application of the probe was assayed for detection of endogenous BSH. L. plantarum was used because its expression of BSH is well-documented, and this organism is found in many popular over-the-counter probiotic formulations for support of healthy cholesterol levels.

[2] = test system: human gut microbiome lysate; test: BSH ABP labeling in human gut microbiome lysate; type: binding
Protocol: The probes were assayed for activity in human gut microbiome extracts.

BSH [3] = target: T1, BSH (Lactiplantibacillus plantarum, UniProt Q06115); test: BA-ABP labeling of purified BSH added to Escherichia coli bacterial lysate; type: binding
T1 sequence (Q06115 1-324): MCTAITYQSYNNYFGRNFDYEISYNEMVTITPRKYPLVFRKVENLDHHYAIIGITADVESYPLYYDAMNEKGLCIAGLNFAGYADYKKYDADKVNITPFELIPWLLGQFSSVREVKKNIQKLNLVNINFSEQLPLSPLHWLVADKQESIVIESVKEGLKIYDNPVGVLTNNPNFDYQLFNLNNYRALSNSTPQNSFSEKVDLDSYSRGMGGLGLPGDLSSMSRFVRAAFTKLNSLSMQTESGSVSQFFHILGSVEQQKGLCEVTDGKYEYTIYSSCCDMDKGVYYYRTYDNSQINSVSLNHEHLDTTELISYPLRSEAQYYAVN
Protocol: as §1

BSH [4] = test: Probe labeling of endogenous BSH in L. plantarum lysate; type: binding, Lactobacillus plantarum
Protocol: as §1

[5] = target: T2, purified recombinant Lactobacillus plantarum BSH (Lactiplantibacillus plantarum, UniProt Q06115); test: BA-ABP labeling of purified BSH; type: binding
T2 sequence (Q06115 1-324): T1 sequence (Q06115 1-324)
Protocol: Binding of BA-ABP to purified recombinant Lactobacillus plantarum BSH was assessed through incubation with probe in buffer (FIG. 18A). […] Additionally, labeling was time-dependent.

purified BSH [6] = settings: read-out: Michaelis-Menten constant (Km); turnover by purified BSH, 0.1 M sodium phosphate pH 6, 37° C.
Protocol: Reaction volumes of 100 μL were used in Microfluor1 black flat bottom microtiter 96 well plates (Thermo Scientific). 50 μL of enzyme (40 μg/ml) in buffer (0.1 M sodium phosphate, pH=6) was added to each well. […] Reactions were immediately placed in a plate reader (SPECTRAmax Gemini XS) pre-warmed to 37° C., and reaction progress was monitored at 450 nm (excitation 350 nm) for 20 minutes. Reactions had final concentrations of 20 μg/ml enzyme, 0.1 M sodium phosphate (pH 6), and 2.5% DMSO.
The initial rate data was used for determination of Km values. For Km determination, the kinetic values were obtained directly from nonlinear regression of substrate-velocity curves in the presence of varying concentrations of BA-AMCA. The equation Y=(Vmax*X)/(Km+X*(1+X/Ki)), X=substrate concentration (μM) and Y=enzyme velocity (RFU/s); was used in the nonlinear regression. Each BA-AMCA Km value was determined using at least three independent experiments.

[7] = test system: endogenously expressed BSH in L. plantarum lysate; test: Lactobacillus plantarum lysate assay; type: biochemical; settings: CAPE 2 mM
Protocol: Reaction volumes of 100 μL were used in Microfluor1 black flat bottom microtiter 96 well plates (Thermo Scientific). […] A 50 μL solution of probe (300 μM) in buffer with 5% DMSO was then added to initiate the reaction. Reactions were immediately placed in a plate reader (SPECTRAmax Gemini XS) pre-warmed to 37° C., and reaction progress was monitored at 450 nm (excitation 350 nm) for 20 minutes.

L. plantarum cells = test: Whole-cell Lactobacillus plantarum assay; type: cell-based; settings: varying amount of CAPE
Protocol: A starter culture was created by inoculation of 5 ml MRS broth from a L. plantarum colony grown on MRS agar. The starter culture was incubated overnight at 37° C. overnight. The 5 ml starter culture was then added to 95 ml fresh MRS broth and grown until the optical density at 600 nm reached 0.7. At that point, the cells were pelleted via centrifugation. The cell pellet was resuspended in 15 ml PBS, and centrifuged. The cells were additionally washed with PBS and pelleted once more. The resulting pellet was suspended in 380 μl PBS. The cell suspension was then serially diluted two-fold. […]

purified BSH [8] = test: GCA and iodoacetamide competition assay; type: biochemical; settings: CA-AMCA 150 μM, BSH 10 μg/ml
[9] = substrate: Cc1c(CC(=O)O)c(=O)oc2cc(NC(=O)CC[C@@H](C)[C@H]3CC[C@H]4C5[C@H](O)C[C@@H]6C[C@H](O)CC[C@]6(C)[C@H]5C[C@H](O)[C@]34C)ccc12; test: purified protein, by the assay type; type: biochemical; settings: other: individual replicate, purified BSH 20 μg/ml, 0.1 M sodium phosphate pH 6, 2.5% DMSO, 37° C., 20 min, Ex 350/Em 450 nm
Source text: Fluorescent signals for substrate turnover could be detected with as low as mid-nanomolar enzyme concentrations, which is considerably less enzyme when compared to micromolar concentrations required for conventional ninhydrin assays with purified BSH. […] Furthermore, robust signals could be reliably observed in the low micromolar substrate concentration range before any indication of substrate inhibition. Product formation was additionally confirmed through coupling of the BSH reaction to a secondary HPLC-based assay.

C#CCNC(=O)C=CCC[C@@H](C)[C@H]1CC[C@H]2C3[C@H](O)C[C@@H]4C[C@H](O)CC[C@]4(C)[C@H]3C[C@H](O)[C@]12C (stereo partly drawn) [BA-ABP]
labeling in vivo in L. plantarum (BSH [1]): Labeling in vivo was also confirmed | labeling in gut microbiome lysate [2]: labeling was observed | fluorescent gel labeling, BSH added to lysate of organism not expressing BSH (BSH [3]): a fluorescent band that is consistent with BSH labeling, along with several other unknown targets | fluorescence imaging of labeling in L. plantarum lysate (BSH [4]): a band consistent with BSH, along with several others | labeling of purified BSH, time dependence [5]: time-dependent | labeling of purified BSH upon addition of free bile salts ([5]; competition with native substrate): could be attenuated | labeling of purified BSH, dose dependence ([5]; incubation with probe in buffer): dose-dependent

Cc1c(CC(=O)O)c(=O)oc2cc(NC(=O)CC[C@@H](C)[C@H]3CC[C@H]4C5[C@H](O)C[C@@H]6C[C@H](O)CC[C@]6(C)[C@H]5C[C@H](O)[C@]34C)ccc12 (stereo partly drawn) [CA-AMCA]
Km (purified BSH [6]): 26 µM

O=C(/C=C/c1ccc(O)c(O)c1)OCCc1ccccc1 [CAPE, caffeic acid phenethyl ester]
effect on CA-AMCA turnover in L. plantarum lysate [7]: Activity was not observed | effect on probe velocities in whole-cell suspension (L. plantarum cells): probe velocities were consistent with the amount of CAPE added

C[C@H](CCC(=O)NCC(=O)O)[C@H]1CC[C@H]2[C@@H]3[C@H](O)C[C@@H]4C[C@H](O)CC[C@]4(C)[C@H]3C[C@H](O)[C@]12C [glycocholic acid]
effect on CA-AMCA turnover by BSH (purified BSH [8]; GCA 10 mM): Attenuated activity

NC(=O)CI [iodoacetamide, reference compound]
effect on CA-AMCA turnover by BSH (purified BSH [8]; IAA 12 mM): completely ablated substrate turnover | effect of pre-treatment on BA-ABP binding to BSH ([5]; pre-treatment before probe): Binding was ablated

B1: bile salt hydrolase (BSH), purified (Lactiplantibacillus plantarum WCFS1) (protein)
chain: T1 sequence (Q06115 1-324)
Km ([9]; FIG. 8B): 31.48 µM | Km ([9]; FIG. 8C): 22.57 µM
